Data on one compound can be found in patent US11352391B2, “Compositions for inducing urinary voiding and defecation” (Dignify Therapeutics, LLC, priority 2017, dated 2022).

For data set [1], the target named is T1, human NK2 Receptor (hNK2R) (Homo sapiens, UniProt P21452).
T1 sequence (P21452 1-398): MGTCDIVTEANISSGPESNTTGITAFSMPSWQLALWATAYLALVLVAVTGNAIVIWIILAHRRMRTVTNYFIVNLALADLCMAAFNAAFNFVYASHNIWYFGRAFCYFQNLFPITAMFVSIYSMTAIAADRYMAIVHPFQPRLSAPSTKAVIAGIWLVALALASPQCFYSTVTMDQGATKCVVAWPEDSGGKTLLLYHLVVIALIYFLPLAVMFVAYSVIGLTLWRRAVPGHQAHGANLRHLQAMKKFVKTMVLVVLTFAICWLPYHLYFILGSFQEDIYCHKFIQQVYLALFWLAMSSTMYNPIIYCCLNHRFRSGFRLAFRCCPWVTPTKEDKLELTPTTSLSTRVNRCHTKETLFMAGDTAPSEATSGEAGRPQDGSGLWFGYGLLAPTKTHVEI
Put plainly: [125I]-NKA radioligand competition binding to human recombinant NK2Rs (CHO-hNK2 membranes). As for the experimental part: (§1) After removal of the supernatant the cell pellet was washed and collected by re-suspension in PBS and centrifugation.
(§2) Frozen pellets were thawed and homogenized in 10 volumes (w/v) of membrane preparation buffer (50 mM HEPES pH 7.4, 1 mM EDTA, 50 μg/mL bacitracin and protease inhibitors) using a Polytron Ultraturrax (twice for 15 s per cycle). […] Protein concentration was determined using BioRad Protein Assay (Milan, Italy) with a BSA standard curve.
Background: Displacement assays read how much labelled ligand stays bound in the presence of the test substance.

In data set [2] the target is human NK1 Receptor (hNK1R) (Homo sapiens, UniProt P25103). The experiment in a line: [3H]-septide radioligand competition binding to human recombinant NK1Rs (CHO-hNK1 membranes). Particulars: displacement of 5.0 nM [3H]-septide, CHO-hNK1 membranes; read-out: hNK1 binding Ki. On the procedure: as §1, §2
Sequence of human NK1 Receptor (hNK1R) (P25103 whole entry): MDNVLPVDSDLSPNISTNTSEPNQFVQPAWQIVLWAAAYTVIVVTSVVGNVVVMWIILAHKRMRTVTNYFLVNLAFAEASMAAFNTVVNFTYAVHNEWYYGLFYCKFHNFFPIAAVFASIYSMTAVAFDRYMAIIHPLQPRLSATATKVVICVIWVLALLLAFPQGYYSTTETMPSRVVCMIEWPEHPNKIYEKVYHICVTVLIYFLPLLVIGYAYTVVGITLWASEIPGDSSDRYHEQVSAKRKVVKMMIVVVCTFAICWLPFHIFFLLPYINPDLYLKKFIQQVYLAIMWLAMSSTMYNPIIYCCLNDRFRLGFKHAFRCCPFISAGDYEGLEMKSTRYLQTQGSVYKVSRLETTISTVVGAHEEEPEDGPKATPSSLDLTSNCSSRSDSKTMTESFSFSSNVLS
Data set [3] can be described thus: Pharmacokinetics in rat plasma after cassette IV bolus dosing. Particulars: Sprague-Dawley, in vivo, iv. As for the experimental part: The concentrations of compounds (SEQ ID NOS: 1-11) were measured in rat plasma after intravenous (IV) bolus dosing to determine pharmacokinetic profiles of individual compounds.
Animal preparation: In vivo studies were performed in anesthetized adult Sprague Dawley rats. Rats were anesthetized with urethane (1.2-1.4 g/kg subcutaneous injection). Surgical procedures were then performed with the addition of isoflurane anesthesia (0.05-1.5% in 02) as needed. A venous cannula was inserted into the jugular vein for intravenous (IV) administration of compounds.
In vivo dosing and plasma sampling: Compounds were divided into two groups (soluble and insoluble). Each group was dosed as a cassette in which four compounds (100 μg/kg each compound) were combined into a single IV bolus injection to anesthetized adult Sprague-Dawley rats. Soluble compounds were dissolved in saline. Insoluble compounds were dissolved in a 10% ethanol/saline solution. Rats were cassette dosed based on weight using 0.1 mg/mL solutions of individual compounds. Blood samples (700 μL) were collected using a carotid artery cannula into EDTA tubes containing ascorbic acid (final concentration 1%), and plasma was isolated.
Bioanalytical assay: A reversed-phase HPLC with Turbo Ion Spray MS/MS detection method was developed for bioanalysis. Mass spec transition and settings were individually optimized for each compound and then compounds were cassetted for HPLC method development and optimization. [^13C9; ^15N] [Lys5,MeLeu9,Nle10]-NKA(4-10) was used as an internal standard (IS). Analyte-to-IS peak area ratios for individual compounds were used to create linear calibration curves (1-20 ng/mL) using 1/×2 weighted least-squares regression analysis for evaluation of method linearity, precision and accuracy. For plasma concentration measurements, plasma samples were spiked with IS, processed by extraction, and analyzed using LC-MS/MS. Positive (M+H)+ ions for individual compounds and IS were monitored in MRM mode.

Data set [4] has as its system anesthetized dog. Put plainly: Colorectal pressure manometry in anesthetized dog. Type of data set: in vivo. As for the experimental part: (§3) Animal preparation: Naïve beagle dogs were fasted for 12-24 hours and received a warm water enema the night prior to, and the morning of, the experiment to clear the rectum and lower colon of feces. The day of the experiment, a 20 gauge IV catheter (Terumo Surflo) was placed in the cephalic vein for anesthetic induction (propofol, 10 mg/kg; IV) and delivery of IV fluids (5-10 ml/kg/hr) and compounds. The sedated dog was intubated with a 5-6 Fr tracheal tube and was maintained on 2-3% isoflurane via a ventilator (15-25 breaths/min; tidal volume […]) for the remainder of the experiment.
Bowel contractility: For colorectal pressure manometry, an ˜3 inch balloon catheter was inserted into the rectum and secured to the tail with tape. This catheter was connected via a three-way stopcock to a pressure transducer (UTAH MEDICAL PRODUCTS; DelTran II) for pressure recording. Data were recorded using PowerLab/8SP acquisition system using LabChart software (version 7.3.7; ADINSTRUMENTS, Australia). Arterial pressure, ECG, temperature and blood oxygen saturation (spO2) were monitored throughout the experiment (MEDTRONIC LIFEPAK12). Dogs were recovered in a quiet room under veterinary supervision.

Data set [5] relates to anesthetized dog. The experiment in a line: Urine leakage from the bladder in anesthetized dog. The data set is classed as in vivo. The settings on record: IV 3 μg/kg and SC 30 μg/kg, data not shown. On the procedure:
as §3

SMILES strings stand for the structures. Where a SMILES comes first, the peptide text is derived from it.

Consider `CCCC[C@H](NC(=O)[C@H](CC(C)C)N(C)C(=O)CNC(=O)[C@@H](NC(=O)[C@H](Cc1ccccc1)NC(=O)[C@H](CCCNC(=N)N)NC(=O)[C@@H](N)CC(=O)O)C(C)C)C(N)=O` [Compound B, Asp-Arg-Phe-Val-Gly-(NMe-Leu)-Nle-NH2] (HELM PEPTIDE1{D.R.F.V.G.[meL].[Nle].[am]}$$$$V2.0; N-terminus assumed), for which the inhibition constant Ki (in general, a measure of affinity in units of concentration, obtained from inhibition or displacement) in data set [1] (displacement of 0.1 nM [125I]-NKA, CHO-hNK2 membranes, read-out: hNK2 binding Ki) turned out to be 0.59 nM; in data set [2], 331 nM. Also, the hNK2 selectivity ratio in data set [1] (ratio of Kis hNK1R/hNK2R) worked out at 557.83. In data set [3], the half-life (usually the time needed for the level to fall by half in the phase considered) fell in the range of 12 to 72 s. Further, the level at 10 min in data set [3] (100 ug/kg) was less than 1 ng/mL. Further, the “duration of colorectal pressure response” value is on record as “approximately 7 minutes” with anesthetized dog [4] (IV bolus (B and E 3 μg/kg; G 3, 30 and 66 ug/kg)); “over 30 minutes” in the data set on anesthetized dog [4] (SC 30 μg/kg). The “onset of increase in colorectal pressure” value in the data set with anesthetized dog [4] (both IV bolus 3 μg/kg and SC 30 μg/kg) was no more than 3 min. In the data set with anesthetized dog [5], the “urine leakage / induction of voiding” value is given as “leakage of urine from the bladder”.
